According to ChEMBL document CHEMBL1136143, “Synthesis and activity of novel benzoxazole derivatives of mannopeptimycin glycopeptide antibiotics” (2003):
In brackets after ≈: the same amount, converted by molar mass. One block for each compound: values may come before it.

Assays:
Type in all cases: functional
[1] = test system: Enterococcus faecium; assay: In vitro minimum inhibitory concentration against vancomycin-resistant Enterococcus faecium (GC 4558)
[2] = test system: Enterococcus faecium; assay: In vitro minimum inhibitory concentration against vancomycin-susceptible Enterococcus faecium (GC 4557)
[3] = test system: Bacillus cereus; assay: In vitro minimum inhibitory concentration against Bacillus cereus (GC 4561) assay organism
[4] = test system: Enterococcus faecalis; assay: In vitro minimum inhibitory concentration against vancomycin-susceptible Enterococcus faecalis (GC 4552)
[5] = test system: Staphylococcus aureus; assay: In vitro minimum inhibitory concentration against Methicillin-susceptible Staphylococcus aureus(GC 4544)
[6] = test system: Streptococcus pneumoniae; assay: In vitro minimum inhibitory concentration against Penicillin resistant Streptococcus pneumoniae (GC 1894)
[7] = test system: Staphylococcus aureus; assay: In vitro minimum inhibitory concentration against glycopeptide tntermediate Staphylococcus aureus (GC 3051)
[8] = test system: Streptococcus pneumoniae; assay: In vitro minimum inhibitory concentration against Penicillin susceptible Streptococcus pneumoniae (GC 4565)
[9] = test system: Staphylococcus aureus; assay: In vitro minimum inhibitory concentration against Methicillin-resistant Staphylococcus aureus (GC 4542)
[10] = test system: Enterococcus faecium; assay: In vitro minimum inhibitory concentration against vancomycin-resistant Enterococcus faecium (GC 2243)
[11] = test system: Staphylococcus haemolyticus; assay: In vitro minimum inhibitory concentration against methicillin-resistant Coagulase-negative Staphylococci (MRCNS) (GC 4548)
[12] = test system: Staphylococcus haemolyticus; assay: In vitro minimum inhibitory concentration against methicillin-susceptible Coagulase-negative Staphylococci (MSCNS) (GC 6257)
[13] = test system: Staphylococcus haemolyticus; assay: In vitro minimum inhibitory concentration against methicillin-susceptible Coagulase-negative Staphylococci (MSCNS) (GC 4549)
[14] = test system: Enterococcus faecalis; assay: In vitro minimum inhibitory concentration against vancomycin-susceptible Enterococcus faecalis (GC 4553)
[15] = test system: Enterococcus sp.; assay: In vitro minimum inhibitory concentration against Enterococcus species (11 strains, including VRE)
[16] = test system: Staphylococcus haemolyticus; assay: In vitro minimum inhibitory concentration against methicillin-resistant Coagulase-negative Staphylococci (MRCNS) (GC 4547)
[17] = test system: Enterococcus faecium; assay: In vitro minimum inhibitory concentration against vancomycin-susceptible Enterococcus faecium (GC 4556)
[18] = test system: Staphylococcus aureus; assay: In vitro minimum inhibitory concentration against Methicillin-susceptible Staphylococcus aureus (GC 2216)
[19] = test system: Enterococcus faecalis; assay: In vitro minimum inhibitory concentration against vancomycin-susceptible Enterococcus faecalis (GC 4555)
[20] = test system: Streptococcus agalactiae; assay: In vitro minimum inhibitory concentration against Streptococcus agalactiae (GC4564)
[21] = test system: Streptococcus pneumoniae; assay: In vitro minimum inhibitory concentration against Penicillin susceptible Streptococcus pneumoniae (GC 6242)
[22] = test system: Enterococcus faecalis; assay: In vitro minimum inhibitory concentration against vancomycin-resistant Enterococcus faecalis (GC 3059)
[23] = test system: Staphylococcus aureus; assay: In vitro minimum inhibitory concentration against Staphylococcus aureus (10strains, including MRSA)
[24] = test system: Micrococcus luteus; assay: In vitro minimum inhibitory concentration against Micrococcus lutea (GC 4562)
[25] = test system: Staphylococcus aureus; assay: In vitro minimum inhibitory concentration against Methicillin-susceptible Staphylococcus aureus (GC 4543)
[26] = test system: Staphylococcus aureus; assay: In vitro minimum inhibitory concentration against Methicillin-resistant Staphylococcus aureus(GC 4541)
[27] = test system: Enterococcus faecalis; assay: In vitro minimum inhibitory concentration against vancomycin-susceptible Enterococcus faecalis (GC 4554)
[28] = test system: Staphylococcus aureus; assay: In vitro minimum inhibitory concentration against glycopeptide tntermediate Staphylococcus aureus (GC 3066)
[29] = test system: Enterococcus faecalis; assay: In vitro minimum inhibitory concentration against vancomycin-resistant Enterococcus faecalis (GC 6189)
[30] = test system: Streptococcus; assay: In vitro minimum inhibitory concentration against Streptococcus Species (5 strains, including PRSP)
[31] = test system: Staphylococcus haemolyticus; assay: In vitro minimum inhibitory concentration against methicillin-susceptible Coagulase-negative Staphylococci (MSCNS) (GC 4551)
[32] = test system: Staphylococcus aureus; assay: In vitro minimum inhibitory concentration against Methicillin-susceptible Staphylococcus aureus(GC 4545)
[33] = test system: Streptococcus pyogenes; assay: In vitro minimum inhibitory concentration against Streptococcus pyogenes (GC 4563)
[34] = test system: Enterococcus faecalis; assay: In vitro minimum inhibitory concentration against vancomycin-susceptible Enterococcus faecalis (GC 2691)
[35] = test system: Staphylococcus aureus; assay: In vitro minimum inhibitory concentration against Methicillin-resistant Staphylococcus aureus (GC 1131)
[36] = test system: Enterococcus faecalis; assay: In vitro minimum inhibitory concentration against vancomycin-resistant Enterococcus faecalis (GC 2242)
[37] = test system: Staphylococcus haemolyticus; assay: In vitro minimum inhibitory concentration against methicillin-resistant Coagulase-negative Staphylococci (MRCNS) (GC 4546)
[38] = test system: Staphylococcus aureus; assay: In vitro minimum inhibitory concentration against Methicillin-resistant Staphylococcus aureus(GC 4544)
[39] = test system: Staphylococcus haemolyticus; assay: In vitro minimum inhibitory concentration against methicillin-resistant Coagulase-negative Staphylococci (MRCNS) (GC 4548))
[40] = test system: Staphylococcus aureus; assay: In vitro minimum inhibitory concentration against Methicillin-resistant Staphylococcus aureus (GC 4543)
[41] = test system: Staphylococcus haemolyticus; assay: In vitro minimum inhibitory concentration against methicillin-resistant Coagulase-negative Staphylococci (MRCNS) (GC 4547))
[42] = test system: Staphylococcus aureus; assay: In vitro minimum inhibitory concentration against Methicillin-resistant Staphylococcus aureus (GC 2216)
[43] = test system: Staphylococcus haemolyticus; assay: In vitro minimum inhibitory concentration against methicillin-resistant Coagulase-negative Staphylococci (MRCNS) (GC 4546))
[44] = test system: Staphylococcus haemolyticus; assay: In vitro minimum inhibitory concentration against methicillin-susceptible Coagulase-negative Staphylococci (MSCNS) (GC 4549))
[45] = test system: Staphylococcus aureus; assay: In vitro minimum inhibitory concentration against Methicillin-resistant Staphylococcus aureus(GC 4545)
[46] = test system: Staphylococcus aureus; assay: In vitro minimum inhibitory concentration against Staphylococcus aureus

Structure (SMILES): CCN1CCN(C(=O)N[C@@H](C(=O)N[C@@H]2C(=O)N3[C@@H]2SC(C)(C)[C@@H]3C(=O)O)c2ccccc2)C(=O)C1=O [PIPERACILLIN]
MIC [1]: > 64 mg/L
MIC [2]: 0.12 mg/L (≈ 0.232 µM)
MIC [3]: 1 mg/L (≈ 1.93 µM)
MIC [4]: 2 mg/L (≈ 3.86 µM)
MIC [5]: 4 mg/L (≈ 7.73 µM)
MIC [6]: 2 mg/L (≈ 3.86 µM)
MIC [7]: 64 mg/L (≈ 124 µM)
MIC [8]: < 0.006 mg/L
MIC [9]: 64 mg/L (≈ 124 µM)
MIC [10]: 64 mg/L (≈ 124 µM)
MIC [11]: 16 mg/L (≈ 30.9 µM)
MIC [12]: 4 mg/L (≈ 7.73 µM)
MIC [13]: 32 mg/L (≈ 61.8 µM)
MIC [14]: > 64 mg/L
MIC [15]: 0.25 mg/L (≈ 0.483 µM)
MIC [16]: > 64 mg/L
MIC [17]: 1 mg/L (≈ 1.93 µM)
MIC [18]: 4 mg/L (≈ 7.73 µM)
MIC [19]: 1 mg/L (≈ 1.93 µM)
MIC [20]: 0.12 mg/L (≈ 0.232 µM)
MIC [21]: < 0.06 mg/L
MIC [22]: 2 mg/L (≈ 3.86 µM)
MIC [23]: 0.5 mg/L (≈ 0.966 µM)
MIC [24]: < 0.06 mg/L
MIC [25]: 1 mg/L (≈ 1.93 µM)
MIC [26]: > 64 mg/L
MIC [27]: 1 mg/L (≈ 1.93 µM)
MIC [28]: 0.5 mg/L (≈ 0.966 µM)
MIC [29]: 2 mg/L (≈ 3.86 µM)
MIC [30]: < 0.12 mg/L
MIC [31]: 4 mg/L (≈ 7.73 µM)
MIC [32]: 8 mg/L (≈ 15.5 µM)
MIC [33]: < 0.006 mg/L
MIC [34]: 2 mg/L (≈ 3.86 µM)
MIC [35]: > 64 mg/L
MIC [36]: 2 mg/L (≈ 3.86 µM)
MIC [37]: > 64 mg/L

Structure (SMILES): Cc1ccc(Oc2ccc(-c3nc4ccc(C[C@H]5NC(=O)[C@H]([C@@H](C)c6ccccc6)NC(=O)CNC(=O)[C@H](CO)NC(=O)[C@@H]([C@@H](O)[C@@H]6CN=C(N)N6[C@H]6O[C@H](CO)[C@@H](O)[C@H](O)[C@@H]6O)NC(=O)[C@H]([C@H](O)[C@@H]6CN=C(N)N6)NC5=O)cc4o3)cc2)cc1
MIC [38]: 8 mg/L (≈ 6.79 µM)
MIC [1]: 4 mg/L (≈ 3.39 µM)
MIC [2]: 4 mg/L (≈ 3.39 µM)
MIC [3]: 8 mg/L (≈ 6.79 µM)
MIC [39]: 4 mg/L (≈ 3.39 µM)
MIC [4]: 8 mg/L (≈ 6.79 µM)
MIC [6]: 4 mg/L (≈ 3.39 µM)
MIC [7]: 4 mg/L (≈ 3.39 µM)
MIC [8]: 4 mg/L (≈ 3.39 µM)
MIC [9]: 8 mg/L (≈ 6.79 µM)
MIC [40]: 4 mg/L (≈ 3.39 µM)
MIC [10]: 8 mg/L (≈ 6.79 µM)
MIC [12]: 2 mg/L (≈ 1.7 µM)
MIC [41]: 8 mg/L (≈ 6.79 µM)
MIC [14]: 4 mg/L (≈ 3.39 µM)
MIC [15]: 4 mg/L (≈ 3.39 µM)
MIC [17]: 8 mg/L (≈ 6.79 µM)
MIC [19]: 8 mg/L (≈ 6.79 µM)
MIC [20]: 4 mg/L (≈ 3.39 µM)
MIC [21]: 4 mg/L (≈ 3.39 µM)
MIC [42]: 8 mg/L (≈ 6.79 µM)
MIC [22]: 8 mg/L (≈ 6.79 µM)
MIC [23]: 4 mg/L (≈ 3.39 µM)
MIC [24]: 1 mg/L (≈ 0.849 µM)
MIC [26]: 8 mg/L (≈ 6.79 µM)
MIC [27]: 8 mg/L (≈ 6.79 µM)
MIC [28]: 4 mg/L (≈ 3.39 µM)
MIC [29]: 8 mg/L (≈ 6.79 µM)
MIC [30]: 1 mg/L (≈ 0.849 µM)
MIC [31]: 4 mg/L (≈ 3.39 µM)
MIC [43]: 4 mg/L (≈ 3.39 µM)
MIC [44]: 4 mg/L (≈ 3.39 µM)
MIC [33]: 1 mg/L (≈ 0.849 µM)
MIC [34]: 8 mg/L (≈ 6.79 µM)
MIC [35]: 8 mg/L (≈ 6.79 µM)
MIC [36]: 4 mg/L (≈ 3.39 µM)
MIC [45]: 4 mg/L (≈ 3.39 µM)

MIC [15]: 32 mg/L (≈ 33 µM)
MIC [46]: 64 mg/L (≈ 65.9 µM)
Structure (SMILES): C[C@@H](c1ccccc1)[C@@H]1NC(=O)CNC(=O)[C@H](CO)NC(=O)[C@@H]([C@@H](O)[C@@H]2CN=C(N)N2[C@H]2O[C@H](CO)[C@@H](O)[C@H](O)[C@@H]2O)NC(=O)[C@H]([C@H](O)[C@@H]2CN=C(N)N2)NC(=O)[C@@H](Cc2ccc(O)cc2)NC1=O
